“Also recorded” adds a separate entry of the source.
Assay: Ovariectomized mice on high fat diet (HFD): body weight, abdominal fat, uterus and mammary gland
Assay type: in vivo
Method: To test the effects of the two PEs (3 and 39) in animals, 10 week old ovariectomized C57/B16 female mice were placed on a high fat diet (HFD) for 50 days to increase body weight and abdominal fat. After gaining weight, the mice were treated orally for 6 weeks with the two PEs separately while being kept on HFD. The vehicle-treated (placebo) control mice continued to gain weight (9% weight increase) even after treatment. The E2-treated mice, which served as positive controls lost 20.5% of their weight. […] The abdominal fat weight dropped by 48% or 32% in the PE-treated groups (3, 39, respectively) and 80% in E2-treated mice compared to control. The growth of mammary gland (MG) and uteri was assessed by measuring MG and uterine weights and by analyzing MG morphology in whole-mounts. […] FIG. 4.

[1] = ovariectomized mice on HFD, 42 days

With C[C@]12CC[C@@H]3c4ccc(O)cc4CC[C@H]3[C@@H]1CC[C@@H]2O [Extract E2, estradiol] the body weight lost (ovariectomized C57/B16 female mice on HFD, treated 6 weeks) was 20.5%, the “abdominal fat weight drop compared to control” value (ovariectomized mice on HFD, 6 weeks treatment) was 80% and the “mammary gland morphology (ducts, histology / whole-mounts)” value [1] was “elongation and branching of ducts in mammary tissue; also recorded: induced elongation and branching of mammary ducts”. The “uterine weight (in words)” value [1] was “induced uterine tissue weight gain; also recorded: induced significant weight gain in the uterus”.

— patent US20100303936A1, “METHOD OF REDUCING FAT ACCUMULATION AND INDUCING WEIGHT LOSS” (Bionovo, Inc. A Delaware Corporation, priority 2009, published 2010)
